According to PubChem BioAssay (NCI):
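Following 48 hours of exposure in 96-well plates, responses at five concentrations were used to interpolate endpoints linearly. The concentration for 50% growth inhibition is given as GI50. TGI is the concentration that stops growth completely.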

test system: HT29 colon; assay: DTP human tumour cell line panel, 48 h

Compared with COc1ccc(C[N+](C)(C)N)cc1OC, Cc1ccc(N=C/C=C(\Nc2ccc(C)cc2)c2ccc(Cl)cc2)cc1 is lower in GI50: over 100 µM for the first, 4 µM for the second.

Compound CC12OC(C(=O)C13CC3)C1C(=O)c3ccc4c(ccc5ccccc54)c3C(=O)C12 (stereo not given) has a GI50 of 55.9 µM.

Compared with COc1ccc(C[N+](C)(C)N)cc1OC, Cc1cc(NC(=S)SCc2ccc(F)cc2)c([N+](=O)[O-])cc1C is lower in TGI: over 100 µM for the first, 34.6 µM for the second.

COc1ccc(-c2cc(-c3cc(C)cc(Br)c3O)no2)cc1 and Cc1ccc(N=C/C=C(\Nc2ccc(C)cc2)c2ccc(Cl)cc2)cc1 cannot be ordered by TGI: over 100 µM for the first, over 100 µM for the second.

O=C(N/N=C/c1cc(Br)ccc1O)N/N=C/c1cc(Br)ccc1O and O=C1c2ccccc2C(=O)C1(O)c1c[nH]c2ccccc12 cannot be ordered by TGI: over 100 µM for the first, over 100 µM for the second.

CCCN(CCC)C(=O)c1c([N+](=O)[O-])cc(C(F)(F)F)cc1[N+](=O)[O-] and CC12OC(C(=O)C13CC3)C1C(=O)c3ccc4c(ccc5ccccc54)c3C(=O)C12 (stereo not given) cannot be ordered by TGI: over 100 µM for the first, over 100 µM for the second.

c1ccc(C2N3CCCCC3[C@@H]3c4[nH]c5ccccc5c4CCN23)nc1 (stereo not given in full) and Nc1ccccc1/C(O)=C1/CCOC1=O cannot be ordered by TGI: over 100 µM for the first, over 100 µM for the second.

test system: HCC-2998 colon; assay: DTP human tumour cell line panel, 48 h

Compared with CC1(C)C(=O)/C(=C\c2cccnc2)C[C@]2(C)[C@H]3CC[C@@H]4[C@H]5[C@H](C(=O)/C=C/c6cccnc6)CC[C@]5(C(=O)O)CC[C@@]4(C)[C@]3(C)CC[C@@H]12, CC12OC(C(=O)C13CC3)C1C(=O)c3ccc4c(ccc5ccccc54)c3C(=O)C12 (stereo not given) is 11-fold higher in GI50: 1.88 µM for the first, 20.4 µM for the second.

First: CC1(C)C(=O)/C(=C\c2cccnc2)C[C@]2(C)[C@H]3CC[C@@H]4[C@H]5[C@H](C(=O)/C=C/c6cccnc6)CC[C@]5(C(=O)O)CC[C@@]4(C)[C@]3(C)CC[C@@H]12
Second: CC12OC(C(=O)C13CC3)C1C(=O)c3ccc4c(ccc5ccccc54)c3C(=O)C12 (stereo not given)
The TGI of the first is lower: 3.55 µM for the first, over 100 µM for the second.

COC(=O)C(Cc1nc2ccccc2[nH]c1=O)C(NO)C(=O)Nc1c(Cl)cc([N+](=O)[O-])cc1Cl (stereo not given) and OCC1OC(n2cnc3c2NC=NC[C@H]3O)C(Cl)C1O (stereo not given in full) cannot be ordered by TGI: over 100 µM for the first, over 100 µM for the second.

test system: NCI-H226 lung; assay: DTP human tumour cell line panel, 48 h

Work on c1ccc(Sc2ccc(Cc3nc4cc5ccccc5cc4[nH]3)cc2)cc1 yielded a GI50 of 2.48 µM.

First: c1ccc(Sc2ccc(Cc3nc4cc5ccccc5cc4[nH]3)cc2)cc1
Second: COc1ccc(-c2cc(-c3cc(C)cc(Br)c3O)no2)cc1
The TGI of the first is 1.6-fold lower: 26.9 µM for the first, 42.4 µM for the second.

Going from CN1CCc2nc(N)nc(-c3nc(N)nc4c3CN(C)CC4)c2C1 to Cc1cc(NC(=S)SCc2ccc(F)cc2)c([N+](=O)[O-])cc1C, the TGI falls from over 100 µM to 38.7 µM.

Cc1[nH]c(=O)nc2[nH][nH]c(=O)c12 and Nc1ccccc1/C(O)=C1/CCOC1=O cannot be ordered by TGI: over 100 µM for the first, over 100 µM for the second.

Going from COc1ccc(C[N+](C)(C)N)cc1OC to CCCN(CCC)C(=O)c1c([N+](=O)[O-])cc(C(F)(F)F)cc1[N+](=O)[O-], the TGI falls from over 100 µM to 65.3 µM.

For O=C(N/N=C/c1cc(Br)ccc1O)N/N=C/c1cc(Br)ccc1O, the TGI was 9.64 µM.

test system: NCI-H460 lung; assay: DTP human tumour cell line panel, 48 h

Compared with CC1(C)C(=O)/C(=C\c2cccnc2)C[C@]2(C)[C@H]3CC[C@@H]4[C@H]5[C@H](C(=O)/C=C/c6cccnc6)CC[C@]5(C(=O)O)CC[C@@]4(C)[C@]3(C)CC[C@@H]12, CC12OC(C(=O)C13CC3)C1C(=O)c3ccc4c(ccc5ccccc54)c3C(=O)C12 (stereo not given) is 7.4-fold higher in GI50: 2.12 µM for the first, 15.6 µM for the second.

First: c1ccc(Sc2ccc(Cc3nc4cc5ccccc5cc4[nH]3)cc2)cc1
Second: Cc1ccc(N=C/C=C(\Nc2ccc(C)cc2)c2ccc(Cl)cc2)cc1
The GI50 of the first is 30-fold lower: 0.21 µM for the first, 6.38 µM for the second.

Going from CC1(C)C(=O)/C(=C\c2cccnc2)C[C@]2(C)[C@H]3CC[C@@H]4[C@H]5[C@H](C(=O)/C=C/c6cccnc6)CC[C@]5(C(=O)O)CC[C@@]4(C)[C@]3(C)CC[C@@H]12 to CC12OC(C(=O)C13CC3)C1C(=O)c3ccc4c(ccc5ccccc54)c3C(=O)C12 (stereo not given), the TGI rises from 6.69 µM to 55.6 µM (8.3-fold).

Going from COC(=O)C(Cc1nc2ccccc2[nH]c1=O)C(NO)C(=O)Nc1c(Cl)cc([N+](=O)[O-])cc1Cl (stereo not given) to Cc1cc(NC(=S)SCc2ccc(F)cc2)c([N+](=O)[O-])cc1C, the TGI rises from 44.7 µM to over 100 µM.

OCC1OC(n2cnc3c2NC=NC[C@H]3O)C(Cl)C1O (stereo not given in full) and c1ccc(C2N3CCCCC3[C@@H]3c4[nH]c5ccccc5c4CCN23)nc1 (stereo not given in full) cannot be ordered by TGI: over 100 µM for the first, over 100 µM for the second.

c1ccc(Sc2ccc(Cc3nc4cc5ccccc5cc4[nH]3)cc2)cc1 and O=C1c2ccccc2C(=O)C1(O)c1c[nH]c2ccccc12 cannot be ordered by TGI: over 100 µM for the first, over 100 µM for the second.

First: CN1CCc2nc(N)nc(-c3nc(N)nc4c3CN(C)CC4)c2C1
Second: COc1ccc(-c2cc(-c3cc(C)cc(Br)c3O)no2)cc1
The TGI of the first is higher: over 100 µM for the first, 44.5 µM for the second.

Cc1[nH]c(=O)nc2[nH][nH]c(=O)c12 and Nc1ccccc1/C(O)=C1/CCOC1=O cannot be ordered by TGI: over 100 µM for the first, over 100 µM for the second.

First: COc1ccc(C[N+](C)(C)N)cc1OC
Second: Cc1ccc(N=C/C=C(\Nc2ccc(C)cc2)c2ccc(Cl)cc2)cc1
The TGI of the first is higher: over 100 µM for the first, 60.6 µM for the second.

O=C(N/N=C/c1cc(Br)ccc1O)N/N=C/c1cc(Br)ccc1O and CCCN(CCC)C(=O)c1c([N+](=O)[O-])cc(C(F)(F)F)cc1[N+](=O)[O-] cannot be ordered by TGI: over 100 µM for the first, over 100 µM for the second.

c1cnn(CN(Cn2cccn2)Cn2cccn2)c1 gave a TGI of over 100 µM.

test system: SF-295 CNS; assay: DTP human tumour cell line panel, 48 h

CC1(C)C(=O)/C(=C\c2cccnc2)C[C@]2(C)[C@H]3CC[C@@H]4[C@H]5[C@H](C(=O)/C=C/c6cccnc6)CC[C@]5(C(=O)O)CC[C@@]4(C)[C@]3(C)CC[C@@H]12 and c1ccc(Sc2ccc(Cc3nc4cc5ccccc5cc4[nH]3)cc2)cc1 are within 1.5-fold of each other in GI50: 2.22 µM for the first, 2.65 µM for the second.

First: COc1ccc(C[N+](C)(C)N)cc1OC
Second: Cc1ccc(N=C/C=C(\Nc2ccc(C)cc2)c2ccc(Cl)cc2)cc1
The GI50 of the first is higher: over 100 µM for the first, 5.55 µM for the second.

Going from CC1(C)C(=O)/C(=C\c2cccnc2)C[C@]2(C)[C@H]3CC[C@@H]4[C@H]5[C@H](C(=O)/C=C/c6cccnc6)CC[C@]5(C(=O)O)CC[C@@]4(C)[C@]3(C)CC[C@@H]12 to c1ccc(C2N3CCCCC3[C@@H]3c4[nH]c5ccccc5c4CCN23)nc1 (stereo not given in full), the TGI rises from 5.59 µM to over 100 µM.

COC(=O)C(Cc1nc2ccccc2[nH]c1=O)C(NO)C(=O)Nc1c(Cl)cc([N+](=O)[O-])cc1Cl (stereo not given) and Cc1cc(NC(=S)SCc2ccc(F)cc2)c([N+](=O)[O-])cc1C cannot be ordered by TGI: over 100 µM for the first, over 100 µM for the second.

OCC1OC(n2cnc3c2NC=NC[C@H]3O)C(Cl)C1O (stereo not given in full) and Nc1ccccc1/C(O)=C1/CCOC1=O cannot be ordered by TGI: over 100 µM for the first, over 100 µM for the second.

Going from c1ccc(Sc2ccc(Cc3nc4cc5ccccc5cc4[nH]3)cc2)cc1 to O=C1c2ccccc2C(=O)C1(O)c1c[nH]c2ccccc12, the TGI rises from 34.7 µM to over 100 µM.

Going from CN1CCc2nc(N)nc(-c3nc(N)nc4c3CN(C)CC4)c2C1 to COc1ccc(-c2cc(-c3cc(C)cc(Br)c3O)no2)cc1, the TGI falls from over 100 µM to 14.4 µM.

Going from Cc1[nH]c(=O)nc2[nH][nH]c(=O)c12 to Cc1ccc(N=C/C=C(\Nc2ccc(C)cc2)c2ccc(Cl)cc2)cc1, the TGI falls from over 100 µM to 21.9 µM.

COc1ccc(C[N+](C)(C)N)cc1OC and CCCN(CCC)C(=O)c1c([N+](=O)[O-])cc(C(F)(F)F)cc1[N+](=O)[O-] cannot be ordered by TGI: over 100 µM for the first, over 100 µM for the second.

O=C(N/N=C/c1cc(Br)ccc1O)N/N=C/c1cc(Br)ccc1O and c1cnn(CN(Cn2cccn2)Cn2cccn2)c1 cannot be ordered by TGI: over 100 µM for the first, over 100 µM for the second.

test system: COLO 205 colon; assay: DTP human tumour cell line panel, 48 h

Going from CC1(C)C(=O)/C(=C\c2cccnc2)C[C@]2(C)[C@H]3CC[C@@H]4[C@H]5[C@H](C(=O)/C=C/c6cccnc6)CC[C@]5(C(=O)O)CC[C@@]4(C)[C@]3(C)CC[C@@H]12 to CC12OC(C(=O)C13CC3)C1C(=O)c3ccc4c(ccc5ccccc54)c3C(=O)C12 (stereo not given), the GI50 rises from 2.33 µM to 32.2 µM (14-fold).

c1ccc(Sc2ccc(Cc3nc4cc5ccccc5cc4[nH]3)cc2)cc1 and Cc1ccc(N=C/C=C(\Nc2ccc(C)cc2)c2ccc(Cl)cc2)cc1 are within 1.5-fold of each other in GI50: 10.1 µM for the first, 7.11 µM for the second.

COc1ccc(C[N+](C)(C)N)cc1OC showed a GI50 of over 100 µM.

Compared with CC1(C)C(=O)/C(=C\c2cccnc2)C[C@]2(C)[C@H]3CC[C@@H]4[C@H]5[C@H](C(=O)/C=C/c6cccnc6)CC[C@]5(C(=O)O)CC[C@@]4(C)[C@]3(C)CC[C@@H]12, CC12OC(C(=O)C13CC3)C1C(=O)c3ccc4c(ccc5ccccc54)c3C(=O)C12 (stereo not given) is higher in TGI: 5.17 µM for the first, over 100 µM for the second.

Compared with COC(=O)C(Cc1nc2ccccc2[nH]c1=O)C(NO)C(=O)Nc1c(Cl)cc([N+](=O)[O-])cc1Cl (stereo not given), Cc1cc(NC(=S)SCc2ccc(F)cc2)c([N+](=O)[O-])cc1C is lower in TGI: over 100 µM for the first, 37.2 µM for the second.

OCC1OC(n2cnc3c2NC=NC[C@H]3O)C(Cl)C1O (stereo not given in full) and Nc1ccccc1/C(O)=C1/CCOC1=O cannot be ordered by TGI: over 100 µM for the first, over 100 µM for the second.

Going from c1ccc(Sc2ccc(Cc3nc4cc5ccccc5cc4[nH]3)cc2)cc1 to O=C1c2ccccc2C(=O)C1(O)c1c[nH]c2ccccc12, the TGI rises from 30.9 µM to over 100 µM.

CN1CCc2nc(N)nc(-c3nc(N)nc4c3CN(C)CC4)c2C1 and Cc1[nH]c(=O)nc2[nH][nH]c(=O)c12 cannot be ordered by TGI: over 100 µM for the first, over 100 µM for the second.

COc1ccc(C[N+](C)(C)N)cc1OC and Cc1ccc(N=C/C=C(\Nc2ccc(C)cc2)c2ccc(Cl)cc2)cc1 cannot be ordered by TGI: over 100 µM for the first, over 100 µM for the second.

First: O=C(N/N=C/c1cc(Br)ccc1O)N/N=C/c1cc(Br)ccc1O
Second: CCCN(CCC)C(=O)c1c([N+](=O)[O-])cc(C(F)(F)F)cc1[N+](=O)[O-]
The TGI of the first is higher: over 100 µM for the first, 39.1 µM for the second.

Compound c1cnn(CN(Cn2cccn2)Cn2cccn2)c1 has a TGI of over 100 µM.
